This is an account of results in patent US20240131032A1, “AN ACTIVITY-GUIDED MAP OF ELECTROPHILE-CYSTEINE INTERACTIONS IN PRIMARY HUMAN IMMUNE CELLS” (The Scripps Research Institute, priority 2019, published 2024).

For assay [1], the target named is T1, MYD88 (Homo sapiens, UniProt Q99836).
T1 construct: endogenous in cells
Nature of the assay: isoTOP-ABPP and TMT-ABPP cysteine engagement, MYD88. Format: binding. As for the experimental part: Activated or expanded T cells were re-suspended in RPMI media supplemented with 10% FBS, L-glutamine (2 mM), penicillin (100 U/mL), and streptomycin (100 μg/mL) at 2×10^6 cells/mL. The compounds were added to cells as 1000×DMSO stocks and mixed well with the media by pipetting up and down after addition. The cells were kept at 37° C. in 5% CO2 containing incubators for 3 h (or otherwise specified times), then pelleted by centrifugation (524 g, 5 min, 4° C.), washed with cold PBS (10 mL) and transferred to Eppendorf tubes (1 mL PBS). The cells were pelleted again (524 g, 5 min, 4° C.), flash-frozen, and kept at −80° C. until further analysis.
Activated or expanded primary human T cells were re-suspended in RPMI (1×10^6 cells/mL) containing 10% fetal bovine serum (FBS), penicillin (100 U/mL), streptomycin ([…]), and L-glutamine (2 mM). The cells were treated with DMSO or compounds for 3 h, pelleted (524 g, 5 min), washed with PBS, and lysed by sonication (2×8 pulses). Soluble and particulate proteomic fractions were separated by ultracentrifugation (100,000 g, 45 min), and protein concentration was normalized to 1.7 mg/mL using a standard DC protein assay (Bio-Rad). The resulting proteomes were analyzed by competitive isotopic Tandem Orthogonal Proteolysis Activity-Based Protein Profiling (isoTOP-ABPP). […]
The heavy/light isoTOP-ABPP ratios (R values) for each unique peptide (DMSO/compound treated) were quantified with in-house CIMAGE software (Weerapana et al., 2010) using default parameters (3 MS1 acquisitions per peak and signal to noise threshold set to 2.5). Site-specific engagement of cysteine residues was assessed by blockade of IA-alkyne probe labeling. […] Ratios for unique peptide sequences were calculated for each experiment; overlapping peptides with the same modified cysteine (e.g., different charge states, elution times or tryptic termini) were grouped together and the median ratio was reported as the final ratio (R). […]

The subject of assay [2] is BIRC2 and BIRC3 mRNA. Nature of the assay: mRNA content for BIRC2 and BIRC3 in T cells (qPCR). The following applies: EV-3 10 μM, 24 h. Format: cell-based, human. As for the experimental part:
All treatments were done with T cells for 24 hours.
Total RNA from compound or DMSO treated T cells (1.5×10^7 cells/group) was isolated using RNeasy Mini Kit (Qiagen) according to manufacturer's protocol. RNA concentration was determined using NanoDrop and adjusted to 1 μg RNA in 15 μL RNAse free water for the reverse transcription reaction. cDNA amplification was done using iScript Reverse Transcription Supermix kit (BioRad) according to manufacturer's instructions. The following PCR settings were used for the reverse transcription reaction: 5 min at 25° C. (priming), 20 min at 46° C. (Reverse transcription), 1 min at 95° C. (RT inactivation), hold at 4° C. qPCR analysis was performed on ABI Real Time PCR System (Applied Biosystems) with the SYBR green Mastermix (Applied Biosystems). Relative gene expression was normalized to actin.

T1 sequence (Q99836 whole entry): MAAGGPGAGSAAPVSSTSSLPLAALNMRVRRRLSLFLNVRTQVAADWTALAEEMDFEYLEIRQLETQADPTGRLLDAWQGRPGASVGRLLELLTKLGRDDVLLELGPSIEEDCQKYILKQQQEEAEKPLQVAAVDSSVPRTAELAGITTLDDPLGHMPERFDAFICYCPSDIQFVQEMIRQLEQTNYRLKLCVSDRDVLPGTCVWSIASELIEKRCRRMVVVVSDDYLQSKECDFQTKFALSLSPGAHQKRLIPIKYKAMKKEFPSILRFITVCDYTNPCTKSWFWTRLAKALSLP

Regarding `C=CC(=O)N(Cc1cccc(Cl)n1)c1ccc(C(=O)Nc2ccccc2)nc1` [BPK-25], in assay [1], the “labeling of C203 of MYD88” value was “direct labeling of C203”. Take `O=C(CCl)N1CCN(S(=O)(=O)c2ccc(-c3ccncc3)cc2)CC1` [EV-3]: the “mRNA content for BIRC2 or BIRC3” value in assay [2] is on record as “minimal changes”.
